Reference: paper PMC7391959 (ACS Omega, 2020)
Where two headings read alike, the source gives them in different places.

Columns and labels:
β-glucosidase (almonds) [1] = test: Glycosidase inhibition assay, β-glucosidase; assay type: biochemical; settings: for IC50: pH 6.8, 25 °C, 100 μM = maximum inhibitor concentration tested; for inhibition: at 100 μM inhibitor concentration
Experimental: (§1) Inhibition assays for glycosidases were accomplished using the methodology reported by Bols and co-workers.[32] The percentage of inhibition was measured by preparing two 1.2 mL samples in PS cuvettes containing 0.1 M phosphate buffer (pH 6.8 or 5.6 for mannosidases) and the corresponding o- or p-nitrophenyl-glycopyranoside at a concentration equal to the expected value of KM: [S] = 0.25 mM for α-glucosidase, 4.0 mM for β-glucosidase; 0.60 mM for α-galactosidase, 0.51 mM for β-galactosidase (E. coli), 1.5 mM for β-galactosidase (A. oryzae), 0.90 mM for α-mannosidase, and 0.58 mM for β-mannosidase. DMSO (control) or inhibitor solution (DMSO) plus water was added up to a constant volume of 1.14 mL. Screenings were conducted using a 100 μM final inhibitor concentration.
(§2) Reactions were started by adding 60 μL of properly diluted enzyme solution at 25 ± 0.1 °C or 35 ± 0.1 °C (for mannosidases), and the formation of the corresponding o- or p-nitrophenolate was monitored for 125 s by measuring the increase in absorbance at 400 nm (glucosidases and α-galactosidase) or 420 nm (β-galactosidases) for 125 s. For α- and β-mannosidases, an aliquot (200 μL) was taken every 60 s and added to a 1 M Na2CO3 solution (1.8 mL), and the absorbance was measured at 400 nm over a period of 4 min.
(§3) Initial rates (slopes of the plots Abs vs t) were used for calculating %I, according to the following expression: [drawing 1] where v0 is the reaction rate for the enzyme solution and v is the reaction rate for the reactions incorporating an inhibitor.
(§4) DMSO concentration was maintained at 5% (v/v) of the total assay mixture for glycosidases.
(§5) The mode of inhibition was determined using the Cornish-Bowden method,[33] which involves the use of two different plots: 1/v vs [I] (Dixon plot) and [S]/v vs [I]. For the calculation of kinetic parameters (KM, Vmax), a nonlinear regression analysis (least-squares fit) was used.

[2] = target: T1, β-galactosidase (E. coli) (Escherichia coli, UniProt P00722); test: Glycosidase inhibition assay, β-galactosidase (E. coli); assay type: biochemical; settings: at 100 μM inhibitor concentration
T1 construct: purchased
Experimental: as §1, §2, §3, §4, §5

[3] = target: T2, α-mannosidase (jack beans) (Canavalia ensiformis, UniProt C0HJB3); test: Glycosidase inhibition assay, α-mannosidase; assay type: biochemical; settings: for mode of inhibition: Cornish-Bowden method; for Ki: pH 5.6, 35 °C, competitive inhibition
T2 construct: purchased
T2 sequence (C0HJB3 1-981): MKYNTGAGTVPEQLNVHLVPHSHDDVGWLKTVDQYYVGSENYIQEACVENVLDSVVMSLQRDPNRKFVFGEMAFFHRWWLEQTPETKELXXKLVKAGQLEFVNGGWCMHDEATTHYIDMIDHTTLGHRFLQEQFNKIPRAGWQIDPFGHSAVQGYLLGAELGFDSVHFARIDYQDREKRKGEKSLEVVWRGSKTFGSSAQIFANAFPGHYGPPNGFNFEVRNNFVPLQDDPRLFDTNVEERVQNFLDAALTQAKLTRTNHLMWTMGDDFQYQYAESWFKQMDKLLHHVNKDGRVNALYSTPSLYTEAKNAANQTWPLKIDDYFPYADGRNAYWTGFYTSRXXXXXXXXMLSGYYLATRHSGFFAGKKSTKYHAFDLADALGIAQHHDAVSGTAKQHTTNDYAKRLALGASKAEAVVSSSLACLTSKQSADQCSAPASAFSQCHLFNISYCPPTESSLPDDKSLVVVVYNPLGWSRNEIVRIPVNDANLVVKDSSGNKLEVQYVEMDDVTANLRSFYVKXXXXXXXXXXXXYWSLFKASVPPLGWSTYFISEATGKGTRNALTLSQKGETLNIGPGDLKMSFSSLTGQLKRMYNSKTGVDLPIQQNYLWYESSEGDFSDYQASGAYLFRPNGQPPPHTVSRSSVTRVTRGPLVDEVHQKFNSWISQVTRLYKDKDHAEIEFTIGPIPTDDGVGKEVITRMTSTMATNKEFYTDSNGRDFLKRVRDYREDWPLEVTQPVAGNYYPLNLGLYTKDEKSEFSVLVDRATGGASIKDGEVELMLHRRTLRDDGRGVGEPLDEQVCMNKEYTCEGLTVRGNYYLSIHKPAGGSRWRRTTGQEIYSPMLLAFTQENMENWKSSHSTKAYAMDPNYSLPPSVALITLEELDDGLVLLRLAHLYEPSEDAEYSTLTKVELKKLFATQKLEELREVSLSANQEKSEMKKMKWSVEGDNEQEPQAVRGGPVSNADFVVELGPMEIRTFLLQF
Experimental: as §1, §2, §3, §4, §5

[4] = system: β-mannosidase (H. pomatia); test: Glycosidase inhibition assay, β-mannosidase; assay type: biochemical, Helix pomatia; settings: at 100 μM inhibitor concentration
Experimental: as §1, §2, §3, §4, §5

[5] = target: T3, α-galactosidase (green coffee beans) (Coffea arabica, UniProt Q42656); test: Glycosidase inhibition assay, α-galactosidase; assay type: biochemical; settings: at 100 μM inhibitor concentration
T3 construct: purchased
Experimental: as §1, §2, §3, §4, §5

[6] = system: α-glucosidase (S. cerevisiae); test: Glycosidase inhibition assay, α-glucosidase; assay type: biochemical, Saccharomyces cerevisiae; settings: for IC50: 100 μM = maximum inhibitor concentration tested
Experimental: as §1, §2, §3, §4, §5

[7] = target: T4, β-galactosidase (A. oryzae) (Aspergillus oryzae, UniProt Q2UCU3); test: Glycosidase inhibition assay, β-galactosidase (A. oryzae); assay type: biochemical; settings: at 100 μM inhibitor concentration
T4 construct: purchased
T4 sequence (Q2UCU3 19-1005): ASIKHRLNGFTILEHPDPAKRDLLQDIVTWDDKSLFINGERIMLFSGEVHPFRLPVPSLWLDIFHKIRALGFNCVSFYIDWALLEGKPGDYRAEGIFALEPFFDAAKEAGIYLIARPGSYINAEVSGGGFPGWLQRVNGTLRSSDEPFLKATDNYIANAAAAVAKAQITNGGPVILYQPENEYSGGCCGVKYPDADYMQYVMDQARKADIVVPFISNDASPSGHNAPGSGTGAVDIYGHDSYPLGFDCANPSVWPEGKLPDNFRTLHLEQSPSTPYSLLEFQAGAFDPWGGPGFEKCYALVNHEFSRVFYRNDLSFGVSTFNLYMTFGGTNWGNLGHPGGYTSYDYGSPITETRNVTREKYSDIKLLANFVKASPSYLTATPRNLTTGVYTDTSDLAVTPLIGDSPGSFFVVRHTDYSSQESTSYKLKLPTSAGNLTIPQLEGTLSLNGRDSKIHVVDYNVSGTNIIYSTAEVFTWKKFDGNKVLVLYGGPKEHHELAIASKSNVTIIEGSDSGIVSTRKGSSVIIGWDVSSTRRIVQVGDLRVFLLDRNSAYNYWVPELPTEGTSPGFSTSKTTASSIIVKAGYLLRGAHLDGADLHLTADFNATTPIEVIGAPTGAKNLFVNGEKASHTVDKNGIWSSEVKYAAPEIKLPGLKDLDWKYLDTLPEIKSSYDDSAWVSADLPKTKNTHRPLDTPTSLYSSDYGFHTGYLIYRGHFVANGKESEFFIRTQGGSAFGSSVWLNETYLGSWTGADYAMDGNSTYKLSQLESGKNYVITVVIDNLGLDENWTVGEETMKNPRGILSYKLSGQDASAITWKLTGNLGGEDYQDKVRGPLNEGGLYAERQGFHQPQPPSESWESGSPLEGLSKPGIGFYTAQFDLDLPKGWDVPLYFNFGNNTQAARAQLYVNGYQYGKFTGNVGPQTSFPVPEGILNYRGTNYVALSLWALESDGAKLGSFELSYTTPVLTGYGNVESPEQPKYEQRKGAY
Experimental: as §1, §2, §3, §4, §5

β-glucosidase (almonds) [8] = settings: cited from earlier work
[9] = target: T1, β-galactosidase (E. coli); settings: cited from earlier work
[10] = target: T4, β-galactosidase (A. oryzae); design: method as in PMID 21548609; settings: cited from earlier work
[11] = target: T3, α-galactosidase (green coffee beans); design: method as in PMID 21548609; settings: cited from earlier work

T1 sequence (P00722 2-1024): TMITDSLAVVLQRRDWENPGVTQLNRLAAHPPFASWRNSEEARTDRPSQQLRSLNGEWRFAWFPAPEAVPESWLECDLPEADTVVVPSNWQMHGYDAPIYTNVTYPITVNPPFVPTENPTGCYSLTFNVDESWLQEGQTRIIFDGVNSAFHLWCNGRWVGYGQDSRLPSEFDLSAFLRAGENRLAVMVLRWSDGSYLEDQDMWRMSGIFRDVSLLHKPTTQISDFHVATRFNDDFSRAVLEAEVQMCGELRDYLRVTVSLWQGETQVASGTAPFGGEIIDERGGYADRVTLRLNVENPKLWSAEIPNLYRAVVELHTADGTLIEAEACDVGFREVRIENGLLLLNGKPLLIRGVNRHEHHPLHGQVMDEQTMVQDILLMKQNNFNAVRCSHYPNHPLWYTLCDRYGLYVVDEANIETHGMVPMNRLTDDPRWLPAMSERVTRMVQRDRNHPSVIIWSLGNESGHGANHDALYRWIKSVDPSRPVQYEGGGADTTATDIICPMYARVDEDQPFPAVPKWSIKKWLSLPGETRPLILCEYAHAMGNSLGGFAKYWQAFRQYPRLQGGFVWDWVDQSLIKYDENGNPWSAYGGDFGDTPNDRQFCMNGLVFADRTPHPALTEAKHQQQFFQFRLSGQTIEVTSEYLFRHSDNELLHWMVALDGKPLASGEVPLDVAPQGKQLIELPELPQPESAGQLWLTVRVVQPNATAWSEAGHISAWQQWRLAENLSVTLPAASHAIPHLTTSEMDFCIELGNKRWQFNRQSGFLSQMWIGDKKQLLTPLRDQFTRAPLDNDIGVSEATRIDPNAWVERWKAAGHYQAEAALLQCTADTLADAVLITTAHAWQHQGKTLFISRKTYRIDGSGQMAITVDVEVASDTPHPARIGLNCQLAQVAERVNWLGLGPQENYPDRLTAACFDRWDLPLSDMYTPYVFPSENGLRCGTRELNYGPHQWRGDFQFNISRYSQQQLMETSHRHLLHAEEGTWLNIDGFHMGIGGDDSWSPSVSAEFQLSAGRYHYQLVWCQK
T3 sequence (Q42656 16-378): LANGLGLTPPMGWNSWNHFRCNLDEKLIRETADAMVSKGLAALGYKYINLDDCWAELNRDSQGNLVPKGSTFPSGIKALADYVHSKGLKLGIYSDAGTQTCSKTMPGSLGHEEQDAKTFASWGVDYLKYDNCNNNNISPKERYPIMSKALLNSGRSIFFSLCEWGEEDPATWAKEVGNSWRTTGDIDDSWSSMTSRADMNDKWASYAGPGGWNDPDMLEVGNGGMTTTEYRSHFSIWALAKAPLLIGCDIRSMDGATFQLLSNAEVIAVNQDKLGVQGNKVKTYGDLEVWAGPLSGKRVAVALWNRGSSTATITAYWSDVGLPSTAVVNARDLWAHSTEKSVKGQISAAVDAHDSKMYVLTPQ

Cl.N=C1[C@@H](O)[C@H](O)[C@@H](CO)N1N [4Cl, (2R,3R,4R)-1-Amino-3,4-dihydroxy-2-(hydroxymethyl)-5-iminopyrrolidine Hydrochloride]
IC50 (β-glucosidase (almonds) [1]): > 100 µM
inhibition [2]: N.I. ^b
mode of inhibition [3]: competitive
Ki [3]: 0.23 µM
inhibition [4]: N.I. ^b
inhibition [5]: N.I. ^b
mode of inhibition ([6]; Cornish-Bowden method): competitive
Ki ([6]; pH 6.8, 25 °C): 5 µM
IC50 ([6]; pH 6.8, 25 °C): 6.6 µM
inhibition [7]: N.I. ^b

CCNN1C(=N)[C@@H](O)[C@H](O)[C@H]1CO.Cl [5Cl, (2R,3R,4R)-1-(Ethylamino)-3,4-dihydroxy-2-(hydroxymethyl)-5-iminopyrrolidine Hydrochloride]
inhibition (β-glucosidase (almonds) [1]): N.I. ^b
inhibition [2]: N.I. ^b
mode of inhibition [3]: competitive
fold impairment in the activity against α-mannosidase ([3]; N-ethyl 5Cl compared with 4Cl): roughly 6 fold
Ki [3]: 1.4 µM
inhibition [4]: N.I. ^b
inhibition [5]: N.I. ^b
IC50 ([6]; pH 6.8, 25 °C): > 100 µM
inhibition [7]: N.I. ^b

Cl.NN1C(=O)[C@@H](O)[C@H](O)[C@H]1CO [6HCl, (3S,4R,5R)-1-Amino-3,4-dihydroxy-5-(hydroxymethyl)-2-pyrrolidinone Hydrochloride]
inhibition (β-glucosidase (almonds) [1]): N.I. ^b
inhibition [2]: N.I. ^b
inhibition ([3]; at 100 μM inhibitor concentration): N.I. ^b
inhibition [4]: N.I. ^b
inhibition [5]: N.I. ^b
IC50 ([6]; pH 6.8, 25 °C): > 100 µM
inhibition [7]: N.I. ^b

OC[C@H]1NC[C@H](O)[C@@H](O)[C@@H]1O [DNJ, 1-deoxynojirimycin, reference compound]
inhibition [2]: N.I. ^b
inhibition [7]: N.I. ^b

OC[C@H]1CNC[C@@H](O)[C@@H]1O [compound 1, isofagomine, reference compound]
IC50 (β-glucosidase (almonds) [1]): 0.48 µM
inhibition [2]: N.I. ^b
inhibition [5]: N.I. ^b
IC50 ([6]; pH 6.8, 25 °C): 32 µM
Ki (β-glucosidase (almonds) [8]; source of β-glucosidase not given): 0.11 µM
inhibition [7]: N.I. ^b

N=C1NC[C@H](CO)[C@@H](O)[C@@H]1O [compound 2, isofagomidine]
inhibition [9]: N.I. ^d
Ki [10]: 210 µM
Ki (β-glucosidase (almonds) [8]): > 210 µM
inhibition [11]: N.I. ^d
